Tested on: 18900 transformants (soybean plants)
Assay: Herbicide resistance of soybean transformants with stacked ADSS Q289N gene
Format: in vivo
Settings: soybean transformed with 18900 (Rhodobacter CrtI + Arabidopsis ADSS Q289N)
From the text: In order to test expression of stacked genes when phytoene desaturease is used as selectable marker, we constructed several vectors with Anemonia majano cyan fluorescent protein gene AmCyan and herbicide resistance (ADSS) or detoxification (cytochrome P450) genes as examples. Binary transformation vector 18340 (FIG. 7) contains Gloeobacter CrtI expression cassette linked to an AmCyan expression cassette. 18340 was derived from insertion of prCMP-AmCyan-tNOS cassette into 18239. Similarly, binary transformation vector 18341 (FIG. 8) contains Rhodobacter CrtI and AmCyan expression cassettes and was constructed by inserting the prCMP-AmCyan-tNOS cassette into 18238. 18900 (FIG. 9) is a binary vector containing Rhodobacter CrtI expression cassette linked with an Arabidopsis adenylosuccinate synthase (ADSS) Q289N mutant expression cassette under the control of prCMP promoter. 18932 (FIG. 10) is a binary vector containing Rhodobacter CrtI expression cassette and an expression cassette for rice cytochrome P450 monooxygenase gene (Genbank accession # OSJNBb0048A17.18) under the control of prCMP promoter. […]
Binary vectors 18340, […], 18900 and 18932 were transformed into soybean plants using norfurazon as selection agent. […] 18932 transformants were evaluated for their resistance against HPPD herbicide mesotrione.

Question: For `O=C1NC(=O)[C@]2(N1)O[C@H](CO)[C@@H](O)[C@H]2O` [hydantocidin], which “resistance of transformants to herbicidal compound” value is on record?
Answer: The value was “resistant”.
